In ChEMBL document CHEMBL1152906, “Synthesis and evaluation of carbamate prodrugs of SQ109 as antituberculosis agents” (Bioorg Med Chem Lett, 2009):
“And” between values parts separate entries of the source, which are not always exact repeats. Identical values can stand only once.

Legend:
Rattus norvegicus [1] = assay: Oral bioavailability in rat assessed as N-Geranyl-N0-(2-adamantyl)ethane-1,2-diamine level at 13 mg/kg; assay type: ADME, organism-based; conditions: in vivo
[2] = Ratio of drug level in rat lung to plasma assessed as N-Geranyl-N0-(2-adamantyl)ethane-1,2-diamine level at 13 mg/kg, po after 4 hrs; assay type: ADME, organism-based; design: dose 13 mg/kg, route oral; conditions: other tissue
Rattus norvegicus [3] = assay: Half life in rat assessed as N-Geranyl-N0-(2-adamantyl)ethane-1,2-diamine level at 13 mg/kg, po; assay type: ADME, organism-based; design: dose 13 mg/kg, route oral; conditions: in vivo
Lung [4] = assay: Drug uptake in rat lung assessed as N-Geranyl-N0-(2-adamantyl)ethane-1,2-diamine level at 13 mg/kg, po after 10 hrs; assay type: ADME, organism-based; design: dose 13 mg/kg, route oral; conditions: in vivo
Lung [5] = assay: Drug uptake in rat lung assessed as N-Geranyl-N0-(2-adamantyl)ethane-1,2-diamine level at 13 mg/kg, po after 4 hrs; assay type: ADME, organism-based; design: dose 13 mg/kg, route oral; conditions: in vivo
Rattus norvegicus [6] = assay: Clearance in rat assessed as N-Geranyl-N0-(2-adamantyl)ethane-1,2-diamine level at 13 mg/kg, po; assay type: ADME, organism-based; design: dose 13 mg/kg, route oral; conditions: in vivo
Rattus norvegicus [7] = assay: Tmax in rat assessed as N-Geranyl-N0-(2-adamantyl)ethane-1,2-diamine level at 13 mg/kg, po; assay type: ADME, organism-based; design: dose 13 mg/kg, route oral; conditions: in vivo
Rattus norvegicus [8] = assay: Cmax in rat assessed as N-Geranyl-N0-(2-adamantyl)ethane-1,2-diamine level at 13 mg/kg, po; assay type: ADME, organism-based; design: dose 13 mg/kg, route oral; conditions: in vivo
Rattus norvegicus [9] = assay: AUC(0 to 24 hrs) in rat assessed as N-Geranyl-N0-(2-adamantyl)ethane-1,2-diamine level at 13 mg/kg, po; assay type: ADME, organism-based, Plasma; design: time < 24 hr, dose 13 mg/kg, route oral; conditions: in vivo
[10] = Stability of compound in Sorensens buffer at pH 7.4; assay type: physicochemical
[11] = Oral bioavailability in dog; assay type: ADME, organism-based, Canis lupus familiaris; conditions: in vivo
[12] = Oral bioavailability in rat; assay type: ADME, organism-based; conditions: in vivo
[13] = Half life in rat at 1.5 mg/kg, iv; assay type: ADME, organism-based; design: dose 1.5 mg/kg, route intravenous; conditions: in vivo
[14] = Clearance in rat at 1.5 mg/kg, iv; assay type: ADME, organism-based; design: dose 1.5 mg/kg, route intravenous; conditions: in vivo
[15] = Cmax in rat at 13 mg/kg, po; assay type: ADME, organism-based; design: dose 13 mg/kg, route oral; conditions: in vivo
[16] = AUC(0 to 24 hrs) in rat at 1.5 mg/kg, iv; assay type: ADME, organism-based; design: time < 24 hr, dose 1.5 mg/kg, route intravenous; conditions: plasma
[17] = Clearance in rat at 13 mg/kg, po; assay type: ADME, organism-based; design: dose 13 mg/kg, route oral; conditions: in vivo
[18] = Half life in rat at 13 mg/kg, po; assay type: ADME, organism-based; design: dose 13 mg/kg, route oral; conditions: in vivo
[19] = Oral bioavailability in rat at 13 mg/kg; assay type: ADME, organism-based; conditions: in vivo
[20] = Tmax in rat at 13 mg/kg, po; assay type: ADME, organism-based; design: dose 13 mg/kg, route oral; conditions: in vivo
[21] = AUC(0 to 24 hrs) in rat at 13 mg/kg, po; assay type: ADME, organism-based; design: time < 24 hr, dose 13 mg/kg, route oral; conditions: plasma
[22] = Cmax in rat at 1.5 mg/kg, iv; assay type: ADME, organism-based; design: dose 1.5 mg/kg, route intravenous; conditions: in vivo

SMILES: CC(C)=CCC/C(C)=C/CN(CCNC1C2CC3CC(C2)CC1C3)C(=O)OCOC(=O)C(C)C.O=C(O)/C=C\C(=O)O (centres undefined)
- F (Rattus norvegicus [1]): 91.4%
- fold change (FC) [2]: 76 and 60
- t1/2 (Rattus norvegicus [3]): 4.58 h
- Drug uptake (Lung [4]): 29.03 µg/g
- Drug uptake (Lung [5]): 35.08 µg/g
- CL (Rattus norvegicus [6]): 41.5 mL/min/kg
- Tmax (Rattus norvegicus [7]): 1 h
- Cmax (Rattus norvegicus [8]): 1309.3 ng/mL
- AUC (Rattus norvegicus [9]): 5441.2 ng·h/mL

SMILES: CC(C)=CCC/C(C)=C/CN(CCNC1C2CC3CC(C2)CC1C3)C(=O)OCOC(=O)C(C)(C)C.O=C(O)/C=C\C(=O)O (centres undefined)
- F (Rattus norvegicus [1]): 72.6%
- t1/2 (Rattus norvegicus [3]): 5.6 h
- CL (Rattus norvegicus [6]): 50 mL/min/kg
- Tmax (Rattus norvegicus [7]): 1.4 h
- Cmax (Rattus norvegicus [8]): 585.6 ng/mL
- AUC (Rattus norvegicus [9]): 4224.8 ng·h/mL

SMILES: CC(C)=CCC/C(C)=C/CN(CCNC1C2CC3CC(C2)CC1C3)C(=O)OC(C)OC(=O)C(C)C.O=C(O)/C=C\C(=O)O (centres undefined)
- Stability [10]: Unstable

SMILES: CC(C)=CCC/C(C)=C/CNCCNC1C2CC3CC(C2)CC1C3 (centres undefined) [SQ109]
- bioavailability [11]: 3.8%
- bioavailability [12]: 12%
- half-life [13]: 5.06 h
- clearance [14]: 17.5 mL/min/kg
- Cmax [15]: 499 ng/mL
- AUC(0-t) at 24 h [16]: 1230 ng·h/mL
- CL/F [17]: 82.3 mL/min/kg
- half-life [18]: 3.71 h
- bioavailability [19]: 21.9%
- Tmax [20]: 0.75 h
- AUC(0-t) at 24 h [21]: 2330 ng·h/mL
- Cmax [22]: 889 ng/mL

SMILES: CC(C)=CCC/C(C)=C/CN(CCNC1C2CC3CC(C2)CC1C3)C(=O)OC(C)OC(=O)C(C)(C)C.O=C(O)/C=C\C(=O)O (centres undefined)
- Stability [10]: Unstable
